Results from patent EP4792833A1, “CLEAVABLE LINKER COMPOUND FOR PRODRUG DELIVERY SYSTEM, AND PREPARATION AND USE THEREOF” (East China Normal University, priority 2023, dated 2025).

Key:
[1] = Stability test in PBS and mouse plasma (HPLC); assay type: in vitro ADME
Experimental: The PBS solution (1 mM, pH 7.4) of Compound (J1-1) prepared in Example 1 of the present invention was incubated at 37 °C. Corresponding samples (n=3) were taken on Day 1, Day 2, Day 3, Day 5, and Day 7, and the contents of (J1-1) and SN38 were determined by HPLC.
Mouse plasma stability: 40 µL of the PBS solution (1 mM, pH 7.4) of Compound (J1-1) prepared in Example 1 of the present invention was mixed with 360 µL of mouse plasma and incubated in a shaker at 37 °C. Corresponding samples (n=3) were taken on Day 1, Day 2, Day 3, Day 5, and Day 7, precipitated with cold acetonitrile, centrifuged at 4 °C for 30 min, and the supernatant was collected. The content of SN38 was determined by HPLC.

[2] = target: T1, β-glucuronidase (Homo sapiens, UniProt P08236); test: Enzyme release assay with β-glucuronidase (SN38 by HPLC); assay type: biochemical; details: for release of SN38 triggered by β-glucuronidase: β-glucuronidase 300 U, 37 °C, within 45 min
T1 sequence (P08236 23-651): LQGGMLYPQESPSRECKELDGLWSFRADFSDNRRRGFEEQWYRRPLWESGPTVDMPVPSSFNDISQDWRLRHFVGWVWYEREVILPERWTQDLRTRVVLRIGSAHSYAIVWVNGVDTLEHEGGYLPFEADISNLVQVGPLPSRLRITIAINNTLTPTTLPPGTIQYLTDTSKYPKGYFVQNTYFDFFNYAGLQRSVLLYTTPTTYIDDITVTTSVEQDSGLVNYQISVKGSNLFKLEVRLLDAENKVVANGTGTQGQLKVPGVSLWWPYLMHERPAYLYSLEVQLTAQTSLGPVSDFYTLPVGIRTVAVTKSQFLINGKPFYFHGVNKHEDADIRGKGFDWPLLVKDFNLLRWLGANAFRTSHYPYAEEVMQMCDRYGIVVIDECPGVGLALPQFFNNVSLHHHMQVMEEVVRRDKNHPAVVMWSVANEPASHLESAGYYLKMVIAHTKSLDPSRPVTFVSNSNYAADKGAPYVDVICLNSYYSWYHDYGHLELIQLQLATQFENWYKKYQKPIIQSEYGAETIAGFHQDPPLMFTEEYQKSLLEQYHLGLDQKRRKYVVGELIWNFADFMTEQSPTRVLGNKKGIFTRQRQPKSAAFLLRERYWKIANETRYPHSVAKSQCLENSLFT
Experimental: Compound (J1-1) solution (100 µM, pH 7.4 or pH 5.5) prepared in Example 1 of the present invention was mixed with β-glucuronidase (300 U) and incubated in a shaker at 37 °C. Corresponding samples (n=3) were taken at 1 min, 2 min, 5 min, 10 min, 20 min, 45 min, 60 min, and 90 min, precipitated with cold acetonitrile, centrifuged at 4 °C for 15 min, and the supernatant was collected. The content of SN38 was determined by HPLC.

[3] = test system: HCT116, A549, MCF-7, HepG2, and 4T1 cells; test: In vitro drug cytotoxicity assay (MTT) with or without β-glucuronidase; assay type: cell-based; details: 72 h
Experimental: The in vitro cytotoxicity of Compound (J1-1) prepared in Example 1 of the present invention against HCT116, A549, MCF-7, HepG2, and 4T1 cells, as well as that in the presence of β-glucuronidase, was determined by MTT assay. A total of 200 µL of culture medium containing 4000 cells was seeded into each well of a 96-well plate. After incubation for adherence for 24 h in an incubator (37 °C, 5% CO2), the culture medium was removed, and 200 µL of drug solutions at various concentrations with or without β-glucuronidase supplementation was added, followed by incubation for 72 h. The medium was removed, 100 µL of MTT solution (0.5 mg/mL) was added to each well, and the plate was incubated for 3 h. Subsequently, 100 µL of triple solution was added to each well, and the plate was incubated for 12 h. The absorbance (OD) at 570 nm was measured using a microplate reader. Cell viability was calculated according to the following formula: Cell viability % = (ODsample −ODblank)/(ODcontrol −ODblank) × 100% [formula]
ODsampleis the absorbance of the drug-treated group, ODblank is the absorbance of complete medium alone, ODcontrol is the absorbance of the cell-seeded group without drug treatment.

[4] = test system: HCT116 cell xenograft tumor model; test: Antitumor effect in HCT116 xenograft nude mice; assay type: in vivo, BALB/c nude mice
Experimental: Female BALB/c nude mice (4 weeks old) were selected and acclimated for three days in a barrier facility. HCT116 cells (5×10^6) were subcutaneously inoculated into the right flank of nude mice. When tumors grew to 80-100 mm^3, tumor-bearing nude mice were randomly divided into four groups with six mice per group. Normal saline (blank group), 30 mg/kg of (J1-1), and 60 mg/kg of Compound (J1-1) prepared in Example 1 of the present invention (supplementary treatment group) were administered intravenously via the tail vein, respectively. Administration was performed twice a week for a total of five times. Body weight and tumor volume of nude mice were observed and recorded.

For CCc1c2c(nc3ccc(OC(=O)N(C)c4cc([N+](=O)[O-])ccc4OCc4ccc(O[C@@H]5O[C@H](C(=O)O)[C@@H](O)[C@H](O)[C@H]5O)c(NC(=O)CCNC(=O)CCCCCN5C(=O)C=CC5=O)c4)cc13)-c1cc3c(c(=O)n1C2)COC(=O)[C@]3(O)CC [Compound J1-1], the “release of SN38” value ([1]; mouse plasma with PBS at pH 7.4, 37 °C, within seven days) was “less than 2%”, the “in vitro and in vivo stability” value ([1]; summary statement) was “excellent” and the “release of the active drug” value ([2]; conditions simulating the tumor microenvironment, summary statement) was “can rapidly release the active drug”. For the same compound, the “release of SN38 triggered by β-glucuronidase” value ([2]; pH 5.5, 100 µM) was 100%, the “release of SN38 triggered by β-glucuronidase” value ([2]; pH 7.4, 100 µM) was 100% and the “in vitro cytotoxicity in the presence of β-glucuronidase” value ([3]; with β-glucuronidase) was “could release the active drug upon β-glucuronidase triggering, thereby achieving the purpose of killing tumor cells”. The in vitro cytotoxicity ([3]; without β-glucuronidase) was “low cytotoxicity”, the tumor volume ([4]; 30 mg/kg and 60 mg/kg intravenously via tail vein, twice a week, five administrations) was “significantly reduced or even eliminated” and the survival period ([4]; HCT116 xenograft mouse model, summary statement) was “significantly prolonged”.
